Measured values published in PMC11779965 (Nature Communications, 2025).

Experiments:
[1] = clogP calculated with ChemAxon Marvin Sketch; conditions: 78 vs Sulfadiazine
[2] = system: female CD-1 mice; assay: Catalepsy bar test; type: in vivo; conditions: 200 mg/kg IP, 90 min after dosing
[3] = physchem; conditions: pH 7.4, […]

Row | SMILES | Catalepsy score compared to Vehicle-treated group (in words) [2] | further results
1 | CS(=O)(=O)c1cnc(NS(=O)(=O)c2ccc(N)cc2)nc1.Cl [Compound 78] | – | Decrease of lipophilicity on replacement of H with MeSO2 [1]: ca. 1.2 clogP units
2 | CCN(CC)CCNC(=O)c1cc(S(C)(=O)=O)cnc1OC [Compound 79] | remained at the level of the Control Vehicle-treated group | –
3 | Nc1ccc(S(=O)(=O)Nc2ncccn2)cc1 [Sulfadiazine] | – | logD [3]: -0.8
4 | CCN(CC)CCNC(=O)c1cc(S(C)(=O)=O)ccc1OC [Tiapride] | significantly higher | –
